Results reported in patent US20220401414A1, “TREATMENT AND PREVENTION OF A NEURODEGENERATIVE DISORDER” (Inflazome Limited, priority 2019, published 2022).

Experiments:
[1] = test system: 6-OHDA mouse model of Parkinson's disease; test: Studies C and D: amphetamine-induced ipsilateral rotations in the 6-OHDA mouse model; type: in vivo, C57BL6 mice; settings: day 21 after 6-OHDA (12 μg)
Experimental: To determine the oral efficacy of the compound of formula (I) in the 6-OHDA mouse model of Parkinson's disease.
8-week-old C57BL6 male mice (obtained from ARC, Perth, Australia) were housed under a 12-h light cycle in a SPF climate-controlled facility with food and water provided ad libitum for two weeks prior to study initiation. For treatment with the compound of formula (I), mice were dosed via oral gavage. Ten (10) mice in each group were dosed at 3 or 1 mg/kg, starting the day before (24 hr prior) stereotaxic surgery, and then QD until sacrifice.
6-OHDA (Sigma) was prepared immediately prior to surgeries. A sterile saline (0.9%) solution containing ascorbic acid (0.2%) was used as the vehicle to dissolve 6-OHDA. […] In order to inject a final concentration of 12 μg into the right striatum, a working stock of 6 mg/ml was made injecting a final volume of 2 μl.
Mice were anaesthetized using ketamine (100 mg/kg, i.p.) and xylazine (10 mg/kg i.p.)
anesthesia and were placed into a stereotactic frame with nose and ear bars specially adapted for mice. The lesion was performed using a 5 μl Hamilton syringe to deliver either vehicle or 6-OHDA (12 μg) at the following coordinates relative to bregma: AP: −1.2 mm; ML: −1.7 mm; DV: 3.5 mm into the right dorsal striatum according to the stereotaxic atlas (“The mouse brain in stereotaxic coordinates” by Paxinos and Franklin, 1997). After drilling a 1 mm burr-hole in the skull, a 2 μl volume of solution was infused at the target site at the rate of 0.5 μl per minute. The needle was held in place for at least 5 minutes after injection to minimize retrograde flow along the needle tract. Mice were administered a subcutaneous injection of sterile Ringer's solution to is facilitate recovery and were placed on a heat-pad until complete recovery from anesthesia.
Amphetamine-induced ipsilateral rotations were performed at day 21 post-surgery. Mice were injected with 2 mg/kg of D-amphetamine and placed in circular glass bowls.
After an acclimatization period of five minutes, the net ipsilateral rotations over ten minutes were recorded and counted. Quantitation was performed from recorded videos by an investigator blinded to the treatment groups.
The aim of study D was to compare the neuroprotective efficacy of the compound of formula (I) with MCC95o in the mouse unilateral 6-OHDA model at 3 mg/kg. The amphetamine-induced ipsilateral rotations and striatal dopamine (DA) levels were assessed, using a protocol identical to that used for study C, with ten (10) mice in each group being dosed at 3 mg/kg for each drug, starting the day before (24 hr prior) stereotaxic surgery, and then daily throughout until sacrifice.

[2] = test system: PFF-Synuclein model of Parkinson's disease; test: Study H: rotarod test in the PFF-Synuclein mouse model; type: in vivo, C57BL6 mice; settings: 4, 6, 8 and 10 months
Description: To determine the oral efficacy of the compound of formula (I) in a chronic progressive model of Parkinson's disease (PD), the preformed fibrils (PFF) mouse model, using a prophylactic and therapeutic dosing schedule.
8-week-old C57BL6 male mice (obtained from ARC, Perth, Australia) were housed under a 12-h light cycle in a SPF climate-controlled facility with food and water provided ad libitum for two weeks prior to study initiation. The compound of formula (I) (or water alone for control animals) was administrated to mice in drinking water at 0.3 mg/ml. Animals were separated into the groups described in Table 9, with ten animals initiated in each cohort. […]
Recombinant human a-synuclein was obtained from rPeptide Inc., and in vitro fibril generation was performed with a final concentration of 2 mg/ml in phosphate-buffered saline (PBS) by incubation at 37° C. with agitation in an orbital mixer (400 rpm) for 7 days with daily cycles of sonication used to break down fibrillar aggregates as outlined in previously published reports (see Luk et al., Science, 2012, vol. 338(6109), pp. 949-53; and Zhang et al., Methods Mol. Biol., 2019, vol. 1948, pp. 45-57, which are incorporated in their entirety herein by reference). The generation of fibrillar α-synuclein species was confirmed by transmission electron microscopy and Thioflavin T fluorescence prior to use. […]

In the case of `CC(C)n1ccc(S(=O)(=O)NC(=O)Nc2c3c(cc4c2CCC4)CCC3)n1` [compound of formula (I)], the amphetamine-induced ipsilateral rotations ([1]; Study C, 3 mg/kg oral gavage QD from 24 hr before surgery) is reported as “significant protective effect”, the amphetamine-induced ipsilateral rotations ([1]; Study D, 3 mg/kg oral daily) is reported as “fewer ipsilateral rotations compared to MCC950” and the “reduction in amphetamine-induced rotations relative to the 6-OHDA untreated group” value ([1]; Study D, 3 mg/kg oral daily) is reported as 75%. The “performance on the rotarod” value ([2]; prophylactic: 0.3 mg/ml in drinking water from 24 h before PFF injection) was “improved performance on the rotarod” and the “performance on the rotarod” value ([2]; therapeutic: 0.3 mg/ml in drinking water from 4 months after PFF injection) was “improved performance on the rotarod”.
